This note sets out measurements from patent US8637550B2, “Heteroaryl diamide compounds useful as MMP-13 inhibitors” (Boehringer Ingelheim International GmbH, priority 2008, dated 2014).

The assay concerns the target MMP-13 (Homo sapiens, UniProt P45452). The assay can be described thus: EnzoLyte 520 Generic MMP Assay Kit, 5-FAM/QXL520 FRET peptide substrate. The format is biochemical. The source says:
The EnzoLyte™ 520 Generic MMP Assay Kit (AnaSpec Inc.) can detect the activity of several MMPs including MMP-1, 2, 3, 7, 8, 9, 13, and 14. This kit uses a 5-FAM/QXL™520 fluorescence resonance energy transfer (FRET) peptide as an MMP substrate.

Turning to `COC[C@H](C)NC(=O)[C@@H](NC(=O)c1ccc(-c2ccc(C#N)cc2)o1)C1CCCCC1` [5-(4-cyanophenyl)-N-[(1S)-1-cyclohexyl-2-{[(2S)-1-methoxypropan-2-yl]amino}-2-oxoethyl]furan-2-carboxamide], 0.195 µM corresponded to half-maximal inhibition (IC50).

For the compound `CNC(=O)[C@@H](NC(=O)c1ccc(-c2ccc(-c3ccccc3)cn2)o1)C(C)C` [5-(5-Phenyl-pyridin-2-yl)-furan-2-carboxylic acid ((S)-2-methyl-1-methylcarbamoyl-propyl)-amide], the midpoint of inhibition, the IC50, lay at 0.079 µM.

Take `CNC(=O)[C@@H](NC(=O)c1ccc(-c2ccc(OCc3ccccc3)cn2)o1)C(C)C` [5-(5-Benzyloxy-pyridin-2-yl)-furan-2-carboxylic acid ((S)-2-methyl-1-methylcarbamoyl-propyl)-amide]: the IC50 was 0.018 µM.

For `CNC(=O)[C@@H](NC(=O)c1ccc(-c2cccc(CNC(=O)c3cc(C)no3)c2)o1)C(C)C` [3-Methyl-isoxazole-5-carboxylic acid 3-[5-((S)-2-methyl-1-methylcarbamoyl-propylcarbamoyl)-furan-2-yl]-benzylamide], the midpoint of inhibition, the IC50, lay at 0.28 µM.

Consider `CNC(=O)[C@@H](NC(=O)c1ccc(-c2ccc(-c3ccc4cc[nH]c4c3)cn2)o1)C(C)C` [5-[5-(1H-Indol-6-yl)-pyridin-2-yl]-furan-2-carboxylic acid ((S)-2-methyl-1-methylcarbamoyl-propyl)-amide], for which the IC50 amounted to 0.091 µM.

Compound `CNC(=O)[C@@H](NC(=O)c1ccc(-c2ccc(-c3cnn(C)c3)cc2)o1)C1CCCCC1` [N-[(1S)-1-cyclohexyl-2-(methylamino)-2-oxoethyl]-5-[4-(1-methyl-1H-pyrazol-4-yl)phenyl]furan-2-carboxamide] registered an IC50 of 0.025 µM.

For the compound `CNC(=O)[C@@H](NC(=O)c1ccc(-c2cccc(CNC(=O)c3cccc(C(F)(F)F)c3)c2)o1)C(C)C` [5-{3-[(3-Trifluoromethyl-benzoylamino)-methyl]-phenyl}-furan-2-carboxylic acid ((S)-2-methyl-1-methylcarbamoyl-propyl)-amide], the IC50 turned out to be 0.049 µM. Against the preceding compound, the IC50 is about 2-fold higher.

With `CNC(=O)[C@@H](NC(=O)c1ccc(-c2cccc(CNC(=O)NC(C)(C)C)c2)o1)C1CCCCC1` [5-(3-{[(tert-Butylcarbamoyl)amino]methyl}phenyl)-N-[(1S)-1-cyclohexyl-2-(methylamino)-2-oxoethyl]furan-2-carboxamide], it took 0.105 µM to reach half-maximal inhibition (IC50). This IC50 lies about 2.1-fold higher than the previous one.

The compound `CNC(=O)[C@@H](NC(=O)c1ccc(-c2cccc(CNC(=O)c3ccc(C(C)C)cc3)c2)o1)C(C)C` [5-{3-[(4-Isopropyl-benzoylamino)-methyl]-phenyl}-furan-2-carboxylic acid ((S)-2-methyl-1-methylcarbamoyl-propyl)-amide] displayed an IC50 of 0.225 µM.

As for `CNC(=O)[C@@H](NC(=O)c1ccc(-c2ccc(-c3cnc(N)nc3)cn2)o1)C(C)C` [5-[5-(2-Amino-pyrimidin-5-yl)-pyridin-2-yl]-furan-2-carboxylic acid ((S)-2-methyl-1-methylcarbamoyl-propyl)-amide], 0.38 µM corresponded to half-maximal inhibition (IC50).

In turn, `CNC(=O)[C@@H](NC(=O)c1ccc(-c2cccc(CNC(=O)c3nc4ccccc4[nH]3)c2)o1)C(C)C` [N-[3-(5-{[(1S)-2-methyl-1-(methylcarbamoyl)propyl]carbamoyl}-2-furyl)benzyl]-1H-benzimidazole-2-carboxamide] displayed an IC50 of 0.033 µM.

`CNC(=O)[C@@H](NC(=O)c1ccc(-c2ccc(C#N)cc2)o1)C1CCOCC1` [5-(4-cyanophenyl)-N-[(1S)-2-(methylamino)-2-oxo-1-(tetrahydro-2H-pyran-4-yl)ethyl]furan-2-carboxamide] gave a 50% inhibitory concentration (IC50) of 0.09 µM.

With `CNC(=O)[C@@H](NC(=O)c1ccc(-c2ccc(NC(=O)c3cc(C)c(C)o3)cc2)o1)C1CCCCC1` [N-[4-(5-{[(1S)-1-cyclohexyl-2-(methylamino)-2-oxoethyl]carbamoyl}furan-2-yl)phenyl]-4,5-dimethylfuran-2-carboxamide], 0.063 µM corresponded to half-maximal inhibition (IC50). The IC50 values of the last two compounds are within 1.5-fold of each other.

`CNC(=O)[C@@H](NC(=O)c1ccc(-c2cccc(CNC(=O)C3CCCN3)c2)o1)C(C)C` (stereo partly drawn) [N-[3-(5-{[(1S)-2-methyl-1-(methylcarbamoy)propyl]carbamoyl}-2-furyl)benzyl]prolinamide]: 0.305 µM corresponded to half-maximal inhibition (IC50).

Regarding `CCc1ccc(-c2ccc(C(=O)N[C@H](C(=O)NC)C3CCCCC3)o2)cc1` [N-[(1S)-1-cyclohexyl-2-(methylamino)-2-oxoethyl]-5-(4-ethylphenyl)furan-2-carboxamide], 0.315 µM corresponded to half-maximal inhibition (IC50).

Consider `CNC(=O)[C@@H](NC(=O)c1ccc(-c2cccc(CNC(=O)c3cccc(C#N)c3)c2)o1)C(C)C` [5-{3-[(3-Cyano-benzoylamino)-methyl]-phenyl}-furan-2-carboxylic acid ((S)-2-methyl-1-methylcarbamoyl-propyl)-amide], for which inhibition was half-maximal at 0.16 µM (IC50). This IC50 is about 2-fold lower than that of the compound before.

`CNC(=O)[C@@H](NC(=O)c1ccc(-c2ccc(NC(=O)c3cc4ccccc4o3)cn2)o1)C1CCCCC1` [N-[6-(5-{[(1S)-1-cyclohexyl-2-(methylamino)-2-oxoethyl]carbamoyl}furan-2-yl)pyridin-3-yl]-1-benzofuran-2-carboxamide] showed a 50% inhibitory concentration (IC50) of 0.03 µM. This IC50 is about 5.3-fold lower than that of the compound before.

Turning to `CC(O)CNC(=O)[C@@H](NC(=O)c1ccc(-c2ccc(C#N)cc2)o1)C1CCCCC1` (stereo partly drawn) [5-(4-cyanophenyl)-N-{(1S)-1-cyclohexyl-2-[(2-hydroxypropyl)amino]-2-oxoethyl}furan-2-carboxamide], the IC50 turned out to be 0.17 µM.

`CNC(=O)[C@@H](NC(=O)c1ccc(-c2ccc(-c3cc(F)cc(F)c3)cn2)o1)C(C)C` [5-[5-(3,5-Difluoro-phenyl)-pyridin-2-yl]-furan-2-carboxylic acid ((S)-2-methyl-1-methylcarbamoyl-propyl)-amide] displayed a concentration for half-maximal inhibition (IC50) of 0.37 µM.

In the case of `CNC(=O)[C@@H](NC(=O)c1ccc(-c2ccc(NC(=O)c3ccc(C)o3)cc2)o1)C1CCCCC1` [N-[4-(5-{[(1S)-1-cyclohexyl-2-(methylamino)-2-oxoethyl]carbamoyl}furan-2-yl)phenyl]-5-methylfuran-2-carboxamide], the 50% inhibitory concentration (IC50) is 0.057 µM.

With `CNC(=O)[C@@H](NC(=O)c1ccc(-c2ccc(-c3ccc(C(F)(F)F)cc3)cc2)o1)C1CCCCC1` [5-(4′-Trifluoromethyl-biphenyl-4-yl)-furan-2-carboxylic acid ((S)-cyclohexyl-methylcarbamoyl-methyl)-amide], half-maximal inhibition (IC50) required 0.373 µM.

`CNC(=O)[C@@H](NC(=O)c1ccc(-c2cccc(CNC(=O)c3cccc(OC)c3)c2)o1)C(C)C` [5-{3-[(3-Methoxy-benzoylamino)-methyl]-phenyl}-furan-2-carboxylic acid ((S)-2-methyl-1-methylcarbamoyl-propyl)-amide] registered an IC50 of 0.163 µM.

Take `CNC(=O)[C@@H](NC(=O)c1ccc(-c2ccc(OCc3ccccn3)cn2)o1)C1CCCCC1` [N-[(1S)-1-cyclohexyl-2-(methylamino)-2-oxoethyl]-5-[5-(pyridin-2-ylmethoxy)pyridin-2-yl]furan-2-carboxamide]: inhibition was half-maximal at 0.021 µM (IC50).

`CNC(=O)[C@@H](NC(=O)c1ccc(-c2ccc(-c3ccc(C#N)cc3)cn2)o1)C(C)C` [5-[5-(4-Cyano-phenyl)-pyridin-2-yl]-furan-2-carboxylic acid ((S)-2-methyl-1-methylcarbamoyl-propyl)-amide] returned an IC50 of 0.022 µM.

With `CNC(=O)[C@@H](NC(=O)c1ccc(-c2ccc(OCc3cc(C)n(C)n3)cn2)o1)C(C)C` [5-[5-(1,5-Dimethyl-1H-pyrazol-3-ylmethoxy)-pyridin-2-yl]-furan-2-carboxylic acid ((S)-2-methyl-1-methylcarbamoyl-propyl)-amide], half-maximal inhibition (IC50) was put at 0.08 µM.

Turning to `CNC(=O)[C@@H](NC(=O)c1ccc(-c2ccc(SC)cc2)o1)C1CCCCC1` [N-[(1S)-1-cyclohexyl-2-(methylamino)-2-oxoethyl]-5-[4-(methylsulfanyl)phenyl]furan-2-carboxamide], the IC50 came out at 0.175 µM.

Take `CNC(=O)[C@@H](NC(=O)c1ccc(-c2cccc(CNC(=O)c3ccnn3C)c2)o1)C1CCCCC1` [N-[3-(5-{[(1S)-1-cyclohexyl-2-(methylamino)-2-oxoethyl]carbamoyl}furan-2-yl)benzyl]-1-methyl-1H-pyrazole-5-carboxamide]: half-maximal inhibition (IC50) was put at 0.143 µM. This IC50 and that of the compound before are within 1.5-fold of each other.

For the compound `CNC(=O)[C@@H](NC(=O)c1ccc(-c2ccc(OCc3ccncc3)cn2)o1)C1CCCCC1` [N-[(1S)-1-cyclohexyl-2-(methylamino)-2-oxoethyl]-5-[5-(pyridin-4-ylmethoxy)pyridin-2-yl]furan-2-carboxamide], the midpoint of inhibition, the IC50, lay at 0.001 µM.

For the compound `CNC(=O)[C@@H](NC(=O)c1ccc(-c2cccc(CNC(=O)c3cc(C)n(C)n3)c2)o1)C1CCCCC1` [N-[3-(5-{[(1S)-1-cyclohexyl-2-(methylamino)-2-oxoethyl]carbamoyl}furan-2-yl)benzyl]-1,5-dimethyl-1H-pyrazole-3-carboxamide], half-maximal inhibition (IC50) required 0.072 µM.

In turn, `CNC(=O)[C@@H](NC(=O)c1ccc(-c2ccc(OCc3[nH]cnc3C)cc2)o1)C1CCOCC1` [5-[4-(5-Methyl-3H-imidazol-4-ylmethoxy)-phenyl]-furan-2-carboxylic acid [(S)-methylcarbamoyl-(tetrahydro-pyran-4-yl)-methyl]-amide] yielded an IC50 of 0.027 µM.

`CNC(=O)[C@@H](NC(=O)c1ccc(-c2cccc(CNC(=O)C3CCCCN3C)c2)o1)C(C)C` (stereo partly drawn) [1-Methyl-N-[3-(5-{[(1S)-2-methyl-1-(methylcarbamoyl)propyl]carbamoyl}-2-furyl)benzyl]piperidine-2-carboxamide] displayed an IC50 of 0.3 µM.

For `CNC(=O)[C@@H](NC(=O)c1ccc(-c2ccc(NC(=O)c3cn(C)cn3)cc2)o1)C1CCCCC1` [N-[4-(5-{[(1S)-1-cyclohexyl-2-(methylamino)-2-oxoethyl]carbamoyl}furan-2-yl)phenyl]-1-methyl-1H-imidazole-4-carboxamide], the IC50 turned out to be 0.14 µM.

The compound `CNC(=O)[C@@H](NC(=O)c1ccc(-c2ccc(OCc3cn(C)cn3)cn2)o1)C1CCCCC1` [N-[(1S)-1-cyclohexyl-2-(methylamino)-2-oxoethyl]-5-{5-[(1-methyl-1H-imidazol-4-yl)methoxy]pyridin-2-yl}furan-2-carboxamide] came in with an IC50 of 0.119 µM.

For orientation: IC50 means the concentration that inhibits the measured activity by half. The low end stands for inhibition by little substance, the high end for a need for much substance.
